Experimental findings from article PMC8586496 (International Journal for Parasitology: Drugs and Drug …, 2021) are described below.

Experiment [1] addresses T1, Tca-Pgp-11.1 (Toxocara canis, UniProt A0A891XKB7).
T1 sequence (A0A891XKB7 1-1282): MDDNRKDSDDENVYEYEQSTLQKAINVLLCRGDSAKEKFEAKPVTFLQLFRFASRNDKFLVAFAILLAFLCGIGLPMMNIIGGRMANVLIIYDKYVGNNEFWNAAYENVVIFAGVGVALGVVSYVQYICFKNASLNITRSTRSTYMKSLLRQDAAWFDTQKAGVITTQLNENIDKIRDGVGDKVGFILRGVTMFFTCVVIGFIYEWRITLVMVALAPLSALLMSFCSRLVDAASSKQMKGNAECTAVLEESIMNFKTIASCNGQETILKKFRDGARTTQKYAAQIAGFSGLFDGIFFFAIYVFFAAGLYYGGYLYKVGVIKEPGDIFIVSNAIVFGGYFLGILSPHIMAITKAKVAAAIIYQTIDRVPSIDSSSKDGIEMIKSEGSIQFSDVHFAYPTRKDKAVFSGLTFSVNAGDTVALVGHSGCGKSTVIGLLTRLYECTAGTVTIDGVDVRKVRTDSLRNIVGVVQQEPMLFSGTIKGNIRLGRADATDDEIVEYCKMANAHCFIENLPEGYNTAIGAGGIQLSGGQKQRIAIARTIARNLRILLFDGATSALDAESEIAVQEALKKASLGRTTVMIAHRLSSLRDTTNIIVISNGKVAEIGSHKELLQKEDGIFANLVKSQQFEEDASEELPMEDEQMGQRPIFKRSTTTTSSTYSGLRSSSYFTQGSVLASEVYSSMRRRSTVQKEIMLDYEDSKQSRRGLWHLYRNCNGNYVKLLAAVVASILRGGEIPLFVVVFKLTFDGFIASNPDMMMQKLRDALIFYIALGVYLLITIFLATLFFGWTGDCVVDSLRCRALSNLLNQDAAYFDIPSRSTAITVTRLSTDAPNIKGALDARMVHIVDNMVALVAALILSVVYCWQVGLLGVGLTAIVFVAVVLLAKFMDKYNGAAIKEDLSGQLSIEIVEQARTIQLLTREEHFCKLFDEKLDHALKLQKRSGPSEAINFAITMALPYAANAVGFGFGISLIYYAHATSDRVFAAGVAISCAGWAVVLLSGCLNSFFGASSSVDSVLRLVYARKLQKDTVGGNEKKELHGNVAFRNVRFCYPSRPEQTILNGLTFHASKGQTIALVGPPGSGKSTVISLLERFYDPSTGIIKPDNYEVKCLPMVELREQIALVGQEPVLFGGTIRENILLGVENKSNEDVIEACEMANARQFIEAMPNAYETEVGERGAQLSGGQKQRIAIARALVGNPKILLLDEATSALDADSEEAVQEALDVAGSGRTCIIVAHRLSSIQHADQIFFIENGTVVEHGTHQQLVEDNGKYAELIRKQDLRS
Kind of experiment: H33342 efflux inhibition assay. It counts as cell-based.

For experiment [2], the system named is non-transfected LLC-PK1 cells. It counts as cell-based, pig. As to conditions: possibly P-gp-independent mechanism.

Values joined by “and” are separate entries in the source; they are usually repeats but may differ in a detail not shown here. Equal values may be shown once.

What is called IC50 is the midpoint of a concentration-inhibition curve. On to `CO[C@H]1C[C@H](O[C@@H]2/C(C)=C/C[C@@H]3C[C@@H](C[C@]4(CC[C@H](C)[C@@H](C5CCCCC5)O4)O3)OC(=O)[C@@H]3C=C(C)/C(=N/O)[C@H]4OC/C(=C\C=C\[C@@H]2C)[C@]43O)O[C@@H](C)[C@@H]1O` [Selamectin, selamectin], for which the IC50 in experiment [1] was found to be 1020 µM.
As for `COc1cc2c(cc1OC)CN(CCc1ccc(NC(=O)c3cc(OC)c(OC)cc3NC(=O)c3cnc4ccccc4c3)cc1)CC2` [Tariquidar, tariquidar], the IC50 in experiment [1] is 68 µM and 68.5 µM.
For the compound `C/C=C/C[C@@H](C)C(=O)[C@H]1C(=O)N[C@@H](C(C)C)C(=O)N(C)CC(=O)N(C)[C@@H](CC(C)C)C(=O)N[C@@H](C(C)C)C(=O)N(C)[C@@H](CC(C)C)C(=O)N[C@@H](C)C(=O)N[C@H](C)C(=O)N(C)[C@@H](CC(C)C)C(=O)N(C)[C@@H](CC(C)C)C(=O)N(C)[C@@H](C(C)C)C(=O)N1C` [Valspodar, valspodar], the IC50 in experiment [1] is 3.01 µM.
For the compound `COC(=O)[C@H]1[C@H]2C[C@@H]3c4[nH]c5cc(OC)ccc5c4CCN3C[C@H]2C[C@@H](OC(=O)c2cc(OC)c(OC)c(OC)c2)[C@@H]1OC` [reserpine], the “Effect on release of H33342 from non-transfected cells” value in experiment [2] is listed as “enhanced release of H33342 from non-transfected cells”.
As to `C=CC[C@@H]1/C=C(\C)C[C@H](C)C[C@H](OC)[C@H]2O[C@@](O)(C(=O)C(=O)N3CCCC[C@H]3C(=O)O[C@H](/C(C)=C/[C@@H]3CC[C@@H](O)[C@H](OC)C3)[C@H](C)[C@@H](O)CC1=O)[C@H](C)C[C@@H]2OC` [tacrolimus], the “Effect on release of H33342 from non-transfected cells” value in experiment [2] is listed as “enhanced release of H33342 from non-transfected cells”.
